Assay results taken from patent US10745394B2, “8-azabicyclo[3.2.1]octane compounds as mu opioid receptor antagonists” (priority 2006, dated 2020).
Read-outs that look alike come from different tables or passages of the source.

Experiments:
human mu opioid receptor [1] = target: T1, human mu opioid receptor (Homo sapiens, UniProt P35372); test: Radioligand binding assay, human mu opioid receptor; conditions: displacement of [3H]-Diprenorphine
T1 construct: expressed in transfected cells; host or cells: CHO-K1

human mu opioid receptor [2] = target: T1, human mu opioid receptor; test: Human mu GTP-Eu nucleotide exchange assay (agonist mediated activation) in CHO-K1 membranes; format: biochemical; conditions: bound GTP-Eu relative to DAMGO (IA=100); read-out: intrinsic activity (IA)
Protocol: a. Mu Opioid Receptor Membrane Preparation:
Protein concentration was determined using a Bio-Rad Bradford Protein Assay kit. Membranes were stored in frozen aliquots at −80° C., until required. Lyophilized GTP-Eu and GDP were diluted to 10 μM and 2 mM, respectively, in double distilled H2O then mixed and permitted to sit at room temperature for 30 minutes prior to transfer to individual aliquots samples for storage at −20° C.
b. Human Mu GTP-Eu Nucleotide Exchange Assay
GTP-Eu nucleotide exchange assays were performed using the DELPHIA GTP-binding kit (Perkin/Elmer) in AcroWell 96 well filter plates according to the manufacturer's specifications. […] Test compounds were received as 10 mM stock solutions in DMSO, diluted to 400 μM into Assay Buffer containing 0.1% BSA, and serial (1:5) dilutions then made to generate ten concentrations of compound ranging from 40 pM^− 80 μM-GDP and GTP-Eu were diluted to 4 μM and 40 nM, respectively, in Assay Buffer. The assay was performed in a total volume of 100 μL containing 5 μg of membrane protein, test compound ranging from 10 pM-20 μM), 1 μM GDP, and 10 nM GTP-Eu diluted in 10 mM MgCl2, 50 mM NaCl, and 0.0125% BSA, (final assay concentrations). A DAMGO (Tyr-D-Ala-Gly-(methyl)Phe-Gly-ol) concentration-response curve (ranging from 12.8 pM-1 μM) was included on every plate.
Assay plates were prepared immediately prior to assay following the addition of 25 μL of Assay Buffer, 25 μL of test compound, and 25 μL GDP and GTP-Eu. The assay was initiated by the addition of 25 μL membrane protein and allowed to incubate for 30 minutes. The assay plates were then filtered with a Waters vacuum manifold connected to the house vacuum regulated to 10-2 in. Hg and washed with room temperature GTP Wash Solution ([…]). The bottoms of the plates were blotted to remove excess liquid. The plates were then immediately read to determine the amount of bound GTP-Eu by measuring Time Resolved Fluorescence (TRF) on a Packard Fusion Plate ReaderVehicle: DMSO not to exceed 1% final assay concentration.
The amount of bound GTP-Eu is proportional to the degree of activation of the mu opioid receptors by the test compound.

[3] = system: morphine-induced analgesia / morphine-induced delayed gastrointestinal transit
[4] = following subcutaneous administration

T1 sequence (P35372 whole entry): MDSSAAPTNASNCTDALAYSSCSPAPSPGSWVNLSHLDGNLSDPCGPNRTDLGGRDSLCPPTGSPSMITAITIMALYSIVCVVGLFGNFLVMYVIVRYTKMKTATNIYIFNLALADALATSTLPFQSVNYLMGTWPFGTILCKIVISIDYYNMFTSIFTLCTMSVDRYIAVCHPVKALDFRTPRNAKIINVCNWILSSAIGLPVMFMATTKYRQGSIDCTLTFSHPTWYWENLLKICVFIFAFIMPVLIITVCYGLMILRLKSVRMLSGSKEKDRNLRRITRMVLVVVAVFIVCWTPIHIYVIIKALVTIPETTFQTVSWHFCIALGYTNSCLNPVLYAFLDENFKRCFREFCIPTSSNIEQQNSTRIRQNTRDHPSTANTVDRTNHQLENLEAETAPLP

SMILES | pKi (human mu opioid receptor [1]) | Emax (human mu opioid receptor [2]) | peripheral selectivity (hotplate ID50 / intestinal transit ID50) ([3]; following oral administration) | peripheral selectivity (hotplate ID50 / intestinal transit ID50) [3, 4]
O=C(CO)N(CCN1[C@@H]2CC[C@H]1C[C@@H](c1cccc(O)c1)C2)Cc1ccccc1 [Example 1, N-benzyl-2-hydroxy-N-{2-[3-endo-(3-hydroxyphenyl)-8-azabicyclo[3.2.1]oct-8-yl]ethyl}acetamide] | 10.1 | 6% | – | –
NC(=O)c1cccc([C@H]2C[C@H]3CC[C@@H](C2)N3CCN(CC2CCCCC2)C(=O)[C@@H](O)CO)c1 [Example 58, 3-endo-(8-{2-[cyclohexylmethyl-((S)-2,3-dihydroxy-propionyl)amino]ethyl}-8-aza-bicyclo[3.2.1]oct-3-yl)benzamide] | 9.9 | -3% | 35 | 300
NC(=O)c1cccc([C@H]2C[C@H]3CC[C@@H](C2)N3CCN(CC2CCCCC2)C(=O)CO)c1 [Example 48B, 3-endo-(8-{2-[cyclohexylmethyl-(2-hydroxyacetyl)-amino]-ethyl}-8-azabicyclo[3.2.1]oct-3-yl)benzamide] | – | – | 42 | 30
NC(=O)c1cccc([C@H]2C[C@H]3CC[C@@H](C2)N3CCN(Cc2ccccc2)C(=O)CO)c1 [Example 46B, 3-endo-(8-{2-[benzyl-(2-hydroxyacetyl)-amino]ethyl}-8-azabicyclo[3.2.1]oct-3-yl)benzamide] | 10.0 | -3% | – | –
NC(=O)c1cccc([C@H]2C[C@H]3CC[C@@H](C2)N3CCN(CCc2ccccc2)C(=O)CO)c1 [Example 59, 3-endo-(8-{2-[(2-hydroxyacetyl)phenethylamino]-ethyl}-8-azabicyclo[3.2.1]oct-3-yl)benzamide] | – | -2% | – | –
NC(=O)c1cccc([C@H]2C[C@H]3CC[C@@H](C2)N3CCN(CC2CCC(F)(F)CC2)C(=O)CO)c1 [Example 63, 3-endo-(8-{2-[(4,4-difluorocyclohexylmethyl)-(2-hydroxyacetyl)amino]ethyl}-8-azabicyclo[3.2.1]oct-3-yl)benzamide] | – | – | 22 | 22
CS(=O)(=O)CC(=O)N(CCc1ccccc1)CCN1[C@@H]2CC[C@H]1C[C@@H](c1cccc(C(N)=O)c1)C2 [Example 136, 3-endo-(8-{2-[(2-methanesulfonylacetyl)phenethylamino]ethyl}-8-azabicyclo[3.2.1]oct-3-yl)-benzamide] | 9.8 | 14% | – | –
